Measurements as given in the supplement of paper PMC10307832.

Tests used:
Experiment in all cases: relative viability (nuclei count vs DMSO), 5 days (fraction); higher = more cells survive
AZD5582 + Pemetrexed = compound: C[C@@H](C(=O)N[C@@H](C1CCCCC1)C(=O)N2CCC[C@H]2C(=O)N[C@@H]3[C@@H](CC4=CC=CC=C34)OCC#CC#CCO[C@@H]5CC6=CC=CC=C6[C@@H]5NC(=O)[C@@H]7CCCN7C(=O)[C@H](C8CCCCC8)NC(=O)[C@H](C)NC)NC [AZD5582] + Nc1nc2[nH]cc(CCc3ccc(C(=O)N[C@@H](CCC(=O)O)C(=O)O)cc3)c2c(=O)[nH]1 [Pemetrexed] (partner 0.2 µM)
How it was run: (§1)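 After 5 days of treatment, lung cancer cells in 1536-well plates were fixed and stained in a single step (final 0.05% Triton X-100, 1% formaldehyde, 1 ug/ml Hoechst) and their nuclei counted on 4× images. Treatment had been applied by pin tool the day after seeding as one drug alone or as a fixed anchor-drug dose with five library-drug doses (not always all listed) in √10 steps. Relative viability is the nuclei count of treated wells divided by that of vehicle wells, and values are medians of duplicate plates.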

Temozolomide + OSI-027 = compound: Cn1nnc2c(C(N)=O)ncn2c1=O [Temozolomide] + COc1cccc2cc(-c3nc([C@H]4CC[C@H](C(=O)O)CC4)n4ncnc(N)c34)[nH]c12 [OSI-027] (partner 0.5 µM)
How it was run: as §1

[1] = compound: Cn1nnc2c(C(N)=O)ncn2c1=O [Temozolomide] + Nc1ncn([C@H]2C[C@H](O)[C@@H](CO)O2)c(=O)n1 [Decitabine] (partner 2 µM)
How it was run: as §1

Temozolomide + Olaparib = compound: Cn1nnc2c(C(N)=O)ncn2c1=O [Temozolomide] + O=C(c1cc(Cc2n[nH]c(=O)c3ccccc23)ccc1F)N1CCN(C(=O)C2CC2)CC1 [Olaparib] (partner 8 µM)
How it was run: as §1

PC-14
relative viability (AZD5582 + Pemetrexed; first compound 0.001581 µM): 0.105 | relative viability (AZD5582 + Pemetrexed; first compound 0.005 µM): 0.112 | relative viability (AZD5582 + Pemetrexed; first compound 0.01581 µM): 0.14 | relative viability (AZD5582 + Pemetrexed; first compound 0.05 µM): 0.101 | relative viability (Temozolomide + OSI-027; first compound 0.2 µM): 1.12 | relative viability (Temozolomide + OSI-027; first compound 0.6325 µM): 0.811 | relative viability (Temozolomide + OSI-027; first compound 2 µM): 0.855 | relative viability (Temozolomide + OSI-027; first compound 6.325 µM): 0.741 | relative viability (Temozolomide + OSI-027; first compound 20 µM): 0.159 | relative viability ([1]; first compound 0.2 µM): 0.27 | relative viability ([1]; first compound 0.6325 µM): 0.241 | relative viability ([1]; first compound 2 µM): 0.245 | relative viability ([1]; first compound 6.325 µM): 0.21 | relative viability ([1]; first compound 20 µM): 0.182 | relative viability (Temozolomide + Olaparib; first compound 0.2 µM): 0.279 | relative viability (Temozolomide + Olaparib; first compound 0.6325 µM): 0.371 | relative viability (Temozolomide + Olaparib; first compound 2 µM): 0.228 | relative viability (Temozolomide + Olaparib; first compound 6.325 µM): 0.171 | relative viability (Temozolomide + Olaparib; first compound 20 µM): 0.153

RERF-LC-KJ
relative viability (AZD5582 + Pemetrexed; first compound 0.001581 µM): 0.154 | relative viability (AZD5582 + Pemetrexed; first compound 0.005 µM): 0.235 | relative viability (AZD5582 + Pemetrexed; first compound 0.01581 µM): 0.457 | relative viability (AZD5582 + Pemetrexed; first compound 0.05 µM): 0.289 | relative viability (Temozolomide + OSI-027; first compound 0.2 µM): 0.495 | relative viability (Temozolomide + OSI-027; first compound 0.6325 µM): 0.6 | relative viability (Temozolomide + OSI-027; first compound 2 µM): 0.597 | relative viability (Temozolomide + OSI-027; first compound 6.325 µM): 0.53 | relative viability (Temozolomide + OSI-027; first compound 20 µM): 0.554 | relative viability ([1]; first compound 0.2 µM): 0.738 | relative viability ([1]; first compound 0.6325 µM): 0.78 | relative viability ([1]; first compound 2 µM): 0.733 | relative viability ([1]; first compound 6.325 µM): 0.617 | relative viability ([1]; first compound 20 µM): 0.712 | relative viability (Temozolomide + Olaparib; first compound 0.2 µM): 0.975 | relative viability (Temozolomide + Olaparib; first compound 0.6325 µM): 1.05 | relative viability (Temozolomide + Olaparib; first compound 2 µM): 0.998 | relative viability (Temozolomide + Olaparib; first compound 6.325 µM): 0.846 | relative viability (Temozolomide + Olaparib; first compound 20 µM): 0.799

SK-LU-1
relative viability (AZD5582 + Pemetrexed; first compound 0.001581 µM): 0.73 | relative viability (AZD5582 + Pemetrexed; first compound 0.005 µM): 0.5 | relative viability (AZD5582 + Pemetrexed; first compound 0.01581 µM): 0.978 | relative viability (AZD5582 + Pemetrexed; first compound 0.05 µM): 0.285 | relative viability (Temozolomide + OSI-027; first compound 0.2 µM): 0.408 | relative viability (Temozolomide + OSI-027; first compound 0.6325 µM): 0.341 | relative viability (Temozolomide + OSI-027; first compound 2 µM): 0.334 | relative viability (Temozolomide + OSI-027; first compound 6.325 µM): 0.24 | relative viability (Temozolomide + OSI-027; first compound 20 µM): 0.272 | relative viability ([1]; first compound 0.2 µM): 0.683 | relative viability ([1]; first compound 0.6325 µM): 0.671 | relative viability ([1]; first compound 2 µM): 0.575 | relative viability ([1]; first compound 6.325 µM): 0.458 | relative viability ([1]; first compound 20 µM): 0.477 | relative viability (Temozolomide + Olaparib; first compound 0.2 µM): 0.428 | relative viability (Temozolomide + Olaparib; first compound 0.6325 µM): 0.446 | relative viability (Temozolomide + Olaparib; first compound 2 µM): 0.416 | relative viability (Temozolomide + Olaparib; first compound 6.325 µM): 0.292 | relative viability (Temozolomide + Olaparib; first compound 20 µM): 0.203

SK-MES-1
relative viability (AZD5582 + Pemetrexed; first compound 0.001581 µM): 0.904 | relative viability (AZD5582 + Pemetrexed; first compound 0.005 µM): 1.01 | relative viability (AZD5582 + Pemetrexed; first compound 0.01581 µM): 0.975 | relative viability (AZD5582 + Pemetrexed; first compound 0.05 µM): 0.939 | relative viability (Temozolomide + OSI-027; first compound 0.2 µM): 0.694 | relative viability (Temozolomide + OSI-027; first compound 0.6325 µM): 0.624 | relative viability (Temozolomide + OSI-027; first compound 2 µM): 0.642 | relative viability (Temozolomide + OSI-027; first compound 6.325 µM): 0.591 | relative viability (Temozolomide + OSI-027; first compound 20 µM): 0.65 | relative viability ([1]; first compound 0.2 µM): 0.417 | relative viability ([1]; first compound 0.6325 µM): 0.391 | relative viability ([1]; first compound 2 µM): 0.362 | relative viability ([1]; first compound 6.325 µM): 0.335 | relative viability ([1]; first compound 20 µM): 0.368 | relative viability (Temozolomide + Olaparib; first compound 0.2 µM): 0.824 | relative viability (Temozolomide + Olaparib; first compound 0.6325 µM): 0.632 | relative viability (Temozolomide + Olaparib; first compound 2 µM): 0.648 | relative viability (Temozolomide + Olaparib; first compound 6.325 µM): 0.532 | relative viability (Temozolomide + Olaparib; first compound 20 µM): 0.414

SW 900
relative viability (AZD5582 + Pemetrexed; first compound 0.001581 µM): 0.366 | relative viability (AZD5582 + Pemetrexed; first compound 0.005 µM): 0.466 | relative viability (AZD5582 + Pemetrexed; first compound 0.01581 µM): 0.486 | relative viability (AZD5582 + Pemetrexed; first compound 0.05 µM): 0.435 | relative viability (Temozolomide + OSI-027; first compound 0.2 µM): 0.569 | relative viability (Temozolomide + OSI-027; first compound 0.6325 µM): 0.618 | relative viability (Temozolomide + OSI-027; first compound 2 µM): 0.47 | relative viability (Temozolomide + OSI-027; first compound 6.325 µM): 0.5 | relative viability (Temozolomide + OSI-027; first compound 20 µM): 0.744 | relative viability ([1]; first compound 0.2 µM): 0.428 | relative viability ([1]; first compound 0.6325 µM): 0.427 | relative viability ([1]; first compound 2 µM): 0.453 | relative viability ([1]; first compound 6.325 µM): 0.511 | relative viability ([1]; first compound 20 µM): 0.427 | relative viability (Temozolomide + Olaparib; first compound 0.2 µM): 1.02 | relative viability (Temozolomide + Olaparib; first compound 0.6325 µM): 1.05 | relative viability (Temozolomide + Olaparib; first compound 2 µM): 0.871 | relative viability (Temozolomide + Olaparib; first compound 6.325 µM): 0.946 | relative viability (Temozolomide + Olaparib; first compound 20 µM): 0.776

SW 1573
relative viability (AZD5582 + Pemetrexed; first compound 0.001581 µM): 0.805 | relative viability (AZD5582 + Pemetrexed; first compound 0.005 µM): 0.774 | relative viability (AZD5582 + Pemetrexed; first compound 0.01581 µM): 0.954 | relative viability (AZD5582 + Pemetrexed; first compound 0.05 µM): 0.821 | relative viability (Temozolomide + OSI-027; first compound 0.2 µM): 0.672 | relative viability (Temozolomide + OSI-027; first compound 0.6325 µM): 0.66 | relative viability (Temozolomide + OSI-027; first compound 2 µM): 0.734 | relative viability (Temozolomide + OSI-027; first compound 6.325 µM): 0.608 | relative viability (Temozolomide + OSI-027; first compound 20 µM): 0.721 | relative viability ([1]; first compound 0.2 µM): 0.589 | relative viability ([1]; first compound 0.6325 µM): 0.535 | relative viability ([1]; first compound 2 µM): 0.577 | relative viability ([1]; first compound 6.325 µM): 0.456 | relative viability ([1]; first compound 20 µM): 0.462 | relative viability (Temozolomide + Olaparib; first compound 0.2 µM): 0.585 | relative viability (Temozolomide + Olaparib; first compound 0.6325 µM): 0.534 | relative viability (Temozolomide + Olaparib; first compound 2 µM): 0.424 | relative viability (Temozolomide + Olaparib; first compound 6.325 µM): 0.302 | relative viability (Temozolomide + Olaparib; first compound 20 µM): 0.236

UMC-11
relative viability (AZD5582 + Pemetrexed; first compound 0.001581 µM): 0.73 | relative viability (AZD5582 + Pemetrexed; first compound 0.005 µM): 0.848 | relative viability (AZD5582 + Pemetrexed; first compound 0.01581 µM): 0.755 | relative viability (AZD5582 + Pemetrexed; first compound 0.05 µM): 0.864 | relative viability (Temozolomide + OSI-027; first compound 0.2 µM): 0.554 | relative viability (Temozolomide + OSI-027; first compound 0.6325 µM): 0.469 | relative viability (Temozolomide + OSI-027; first compound 2 µM): 0.566 | relative viability (Temozolomide + OSI-027; first compound 6.325 µM): 0.467 | relative viability (Temozolomide + OSI-027; first compound 20 µM): 0.447 | relative viability ([1]; first compound 0.2 µM): 0.462 | relative viability ([1]; first compound 0.6325 µM): 0.628 | relative viability ([1]; first compound 2 µM): 0.614 | relative viability ([1]; first compound 6.325 µM): 0.524 | relative viability ([1]; first compound 20 µM): 0.521 | relative viability (Temozolomide + Olaparib; first compound 0.2 µM): 0.386 | relative viability (Temozolomide + Olaparib; first compound 0.6325 µM): 0.612 | relative viability (Temozolomide + Olaparib; first compound 2 µM): 0.382 | relative viability (Temozolomide + Olaparib; first compound 6.325 µM): 0.306 | relative viability (Temozolomide + Olaparib; first compound 20 µM): 0.265
